Measurements as given in US7553841B2, “Amino cyclobutylamide modulators of chemokine receptor activity” (Merck & Co., Inc., priority 2003, dated 2009).

test system: chemokine receptor; test: activity of separated cis/trans isomers (test not described); settings: cis versus trans isomer of the same example, separated by chromatography; values not given

SMILES | relative activity of the separated isomers
CC(O)[C@]1(C(=O)NCc2cncc(C(F)(F)F)c2)C[C@@H](N2CC[C@@]3(C=Cc4ccccc43)[C@@H](C)C2)C1 (mixture of isomers) [Example 122 cis isomer] | more active isomer
C[C@H]1CN(C2CC(C(=O)NCc3cc(C(F)(F)F)cc(C(F)(F)F)c3)C2)CC[C@@]12C=Cc1ccccc12 (stereo partly drawn) [Example 1 cis isomer] | more active isomer
CN(C1CCOCC1)C1CC(C(=O)NCc2cc(C(F)(F)F)cc(C(F)(F)F)c2)(c2ccccc2)C1 (stereo not drawn) [Example 41 cis isomer] | more active isomer
CN(C1CCOCC1)C1CC(C(=O)NCc2cc(F)cc(C(F)(F)F)c2)(c2ccccc2)C1 (stereo not drawn) [Example 42 trans isomer] | active isomer
C[C@H]1CN(C2CC(CNC(=O)c3cc(C(F)(F)F)cc(C(F)(F)F)c3)(c3ccccc3)C2)CC[C@@]12C=Cc1ccccc12 (stereo partly drawn) [Example 43 cis isomer] | active isomer
C[C@H]1CN(C2CC(C)(C(=O)NCc3cc(C(F)(F)F)cc(C(F)(F)F)c3)C2)CC[C@@]12C=Cc1ccccc12 (stereo partly drawn) [Example 54 cis isomer] | more active isomer
